Results: the NIST ThermoML archive (doi:10.1021/je060179e)

Test: xn = mol fraction of the nth substance listed
Conditions: for mass density: 101 kPa, Liquid

CCCCCCO [hexan-1-ol] + CCCCCCC
Conditions	mass density [kg/m3]	surface tension liquid-gas [mN/m]
288.15 K, x2 = 0.05	814.76	–
288.15 K, x2 = 0.0507	–	25.6
288.15 K, x2 = 0.0976	807.66	–
288.15 K, x2 = 0.1018	–	25.01
288.15 K, x2 = 0.2001	–	24.02
288.15 K, x2 = 0.3087	–	23.22
288.15 K, x2 = 0.3197	775.17	–
288.15 K, x2 = 0.3943	764.62	–
288.15 K, x2 = 0.3949	–	22.55
288.15 K, x2 = 0.5021	–	22.16
288.15 K, x2 = 0.5088	748.93	–
288.15 K, x2 = 0.6053	–	21.8
288.15 K, x2 = 0.6171	734.53	–
288.15 K, x2 = 0.7045	723.24	–
288.15 K, x2 = 0.7097	–	21.46
288.15 K, x2 = 0.8055	–	21.2
288.15 K, x2 = 0.808	710.42	–
288.15 K, x2 = 0.9066	–	21.05
288.15 K, x2 = 0.9072	698.54	–
288.15 K, x2 = 0.9517	–	20.94
293.15 K, x2 = 0.0494	–	25.01
293.15 K, x2 = 0.05	811.17	–
293.15 K, x2 = 0.0976	804.03	–
293.15 K, x2 = 0.1036	–	24.45
293.15 K, x2 = 0.201	–	23.47
293.15 K, x2 = 0.3037	–	22.65
293.15 K, x2 = 0.3197	771.33	–
293.15 K, x2 = 0.3943	760.72	–
293.15 K, x2 = 0.4422	–	21.75
293.15 K, x2 = 0.5056	–	21.54
293.15 K, x2 = 0.5088	744.95	–
293.15 K, x2 = 0.5979	–	21.26
293.15 K, x2 = 0.6171	730.47	–
293.15 K, x2 = 0.6999	–	20.8
293.15 K, x2 = 0.7045	719.14	–
293.15 K, x2 = 0.808	706.27	–
293.15 K, x2 = 0.8091	–	20.54
293.15 K, x2 = 0.9061	–	20.43
293.15 K, x2 = 0.9072	694.33	–
293.15 K, x2 = 0.951	–	20.29
298.15 K, x2 = 0.0497	–	24.61
298.15 K, x2 = 0.05	807.56	–
298.15 K, x2 = 0.0976	800.37	–
298.15 K, x2 = 0.0987	–	24.05
298.15 K, x2 = 0.2023	–	22.92
298.15 K, x2 = 0.3096	–	22.09
298.15 K, x2 = 0.3197	767.46	–
298.15 K, x2 = 0.3943	756.8	–
298.15 K, x2 = 0.4078	–	21.45
298.15 K, x2 = 0.5054	–	21.04
298.15 K, x2 = 0.5088	740.94	–
298.15 K, x2 = 0.6099	–	20.58
298.15 K, x2 = 0.6171	726.39	–
298.15 K, x2 = 0.7045	715.01	–
298.15 K, x2 = 0.7075	–	20.28
298.15 K, x2 = 0.808	702.07	–
298.15 K, x2 = 0.8127	–	20.04
298.15 K, x2 = 0.905	–	19.93
298.15 K, x2 = 0.9072	690.09	–
298.15 K, x2 = 0.9515	–	19.74
303.15 K, x2 = 0.0488	–	24.1
303.15 K, x2 = 0.05	803.92	–
303.15 K, x2 = 0.0976	796.68	–
303.15 K, x2 = 0.1027	–	23.55
303.15 K, x2 = 0.1865	–	22.62
303.15 K, x2 = 0.31	–	21.59
303.15 K, x2 = 0.3197	763.56	–
303.15 K, x2 = 0.3943	752.84	–
303.15 K, x2 = 0.4122	–	20.97
303.15 K, x2 = 0.5086	–	20.49
303.15 K, x2 = 0.5088	736.9	–
303.15 K, x2 = 0.6147	–	20
303.15 K, x2 = 0.6171	722.28	–
303.15 K, x2 = 0.7045	710.84	–
303.15 K, x2 = 0.7097	–	19.78
303.15 K, x2 = 0.808	697.85	–
303.15 K, x2 = 0.8089	–	19.54
303.15 K, x2 = 0.9068	–	19.26
303.15 K, x2 = 0.9072	685.82	–
303.15 K, x2 = 0.9519	–	19.13
308.15 K, x2 = 0.0428	–	23.64
308.15 K, x2 = 0.05	800.26	–
308.15 K, x2 = 0.0976	792.98	–
308.15 K, x2 = 0.1025	–	23.03
308.15 K, x2 = 0.1986	–	22
308.15 K, x2 = 0.3055	–	21.1
308.15 K, x2 = 0.3197	759.64	–
308.15 K, x2 = 0.3943	748.86	–
308.15 K, x2 = 0.403	–	20.52
308.15 K, x2 = 0.498	–	20.11
308.15 K, x2 = 0.5088	732.83	–
308.15 K, x2 = 0.6165	–	19.57
308.15 K, x2 = 0.6171	718.13	–
308.15 K, x2 = 0.7042	–	19.35
308.15 K, x2 = 0.7045	706.64	–
308.15 K, x2 = 0.808	693.59	–
308.15 K, x2 = 0.8118	–	19.06
308.15 K, x2 = 0.9054	–	18.89
308.15 K, x2 = 0.9072	681.51	–
308.15 K, x2 = 0.9503	–	18.77

CCCCCCCCO [octan-1-ol] + CCCCCCC
Conditions	mass density [kg/m3]	surface tension liquid-gas [mN/m]
288.15 K, x2 = 0.0514	822.18	–
288.15 K, x2 = 0.0516	–	26.75
288.15 K, x2 = 0.0995	–	26.18
288.15 K, x2 = 0.1001	816.02	–
288.15 K, x2 = 0.1845	–	25.05
288.15 K, x2 = 0.2015	802.93	–
288.15 K, x2 = 0.3082	788.6	–
288.15 K, x2 = 0.3346	–	23.74
288.15 K, x2 = 0.4054	775.17	–
288.15 K, x2 = 0.4142	–	23.12
288.15 K, x2 = 0.5034	–	22.6
288.15 K, x2 = 0.517	759.5	–
288.15 K, x2 = 0.6074	–	22.16
288.15 K, x2 = 0.6305	743.28	–
288.15 K, x2 = 0.6639	–	21.9
288.15 K, x2 = 0.7114	731.48	–
288.15 K, x2 = 0.8136	716.21	–
288.15 K, x2 = 0.8325	–	21.24
288.15 K, x2 = 0.9061	702.2	–
288.15 K, x2 = 0.9105	–	20.94
288.15 K, x2 = 0.9518	695.28	–
288.15 K, x2 = 0.9561	–	20.87
293.15 K, x2 = 0.0514	818.71	–
293.15 K, x2 = 0.0564	–	26.14
293.15 K, x2 = 0.1001	812.51	–
293.15 K, x2 = 0.1057	–	25.54
293.15 K, x2 = 0.2015	799.33	–
293.15 K, x2 = 0.2084	–	24.34
293.15 K, x2 = 0.3082	784.92	–
293.15 K, x2 = 0.3112	–	23.38
293.15 K, x2 = 0.4054	771.41	–
293.15 K, x2 = 0.4066	–	22.59
293.15 K, x2 = 0.5114	–	21.96
293.15 K, x2 = 0.517	755.65	–
293.15 K, x2 = 0.6092	–	21.52
293.15 K, x2 = 0.6305	739.34	–
293.15 K, x2 = 0.7114	727.47	–
293.15 K, x2 = 0.7164	–	20.99
293.15 K, x2 = 0.8124	–	20.62
293.15 K, x2 = 0.8136	712.11	–
293.15 K, x2 = 0.8965	–	20.48
293.15 K, x2 = 0.9061	698.04	–
293.15 K, x2 = 0.9518	691.08	–
293.15 K, x2 = 0.9573	–	20.26
298.15 K, x2 = 0.0514	815.21	–
298.15 K, x2 = 0.0541	–	25.64
298.15 K, x2 = 0.1001	808.98	–
298.15 K, x2 = 0.1083	–	25.03
298.15 K, x2 = 0.2004	–	23.91
298.15 K, x2 = 0.2015	795.72	–
298.15 K, x2 = 0.3082	781.22	–
298.15 K, x2 = 0.3137	–	22.82
298.15 K, x2 = 0.405	–	22.09
298.15 K, x2 = 0.4054	767.63	–
298.15 K, x2 = 0.5089	–	21.44
298.15 K, x2 = 0.517	751.77	–
298.15 K, x2 = 0.6085	–	20.94
298.15 K, x2 = 0.6305	735.37	–
298.15 K, x2 = 0.7107	–	20.46
298.15 K, x2 = 0.7114	723.44	–
298.15 K, x2 = 0.8072	–	20.15
298.15 K, x2 = 0.8136	707.99	–
298.15 K, x2 = 0.9061	693.84	–
298.15 K, x2 = 0.9071	–	19.82
298.15 K, x2 = 0.9518	686.85	–
298.15 K, x2 = 0.9536	–	19.64
303.15 K, x2 = 0.0504	–	25.18
303.15 K, x2 = 0.0514	811.7	–
303.15 K, x2 = 0.1001	805.43	–
303.15 K, x2 = 0.1033	–	24.57
303.15 K, x2 = 0.2015	792.09	–
303.15 K, x2 = 0.2052	–	23.46
303.15 K, x2 = 0.3082	777.49	–
303.15 K, x2 = 0.3108	–	22.37
303.15 K, x2 = 0.4054	763.85	–
303.15 K, x2 = 0.4134	–	21.56
303.15 K, x2 = 0.5153	–	20.94
303.15 K, x2 = 0.517	747.87	–
303.15 K, x2 = 0.6005	–	20.46
303.15 K, x2 = 0.6305	731.38	–
303.15 K, x2 = 0.7067	–	19.98
303.15 K, x2 = 0.7114	719.37	–
303.15 K, x2 = 0.8043	–	19.58
303.15 K, x2 = 0.8136	703.84	–
303.15 K, x2 = 0.9047	–	19.22
303.15 K, x2 = 0.9061	689.61	–
303.15 K, x2 = 0.9486	–	19.14
303.15 K, x2 = 0.9518	682.59	–
308.15 K, x2 = 0.0514	808.16	–
308.15 K, x2 = 0.0562	–	24.54
308.15 K, x2 = 0.1001	801.85	–
308.15 K, x2 = 0.1017	–	24.05
308.15 K, x2 = 0.2015	788.43	–
308.15 K, x2 = 0.2078	–	22.86
308.15 K, x2 = 0.3065	–	21.92
308.15 K, x2 = 0.3082	773.75	–
308.15 K, x2 = 0.4054	760.1	–
308.15 K, x2 = 0.4117	–	21.11
308.15 K, x2 = 0.5064	–	20.53
308.15 K, x2 = 0.517	743.94	–
308.15 K, x2 = 0.6065	–	20
308.15 K, x2 = 0.6305	727.36	–
308.15 K, x2 = 0.7081	–	19.61
308.15 K, x2 = 0.7114	715.28	–
308.15 K, x2 = 0.8	–	19.27
308.15 K, x2 = 0.8136	699.65	–
308.15 K, x2 = 0.9028	–	18.88
308.15 K, x2 = 0.9061	685.35	–
308.15 K, x2 = 0.9483	–	18.82
308.15 K, x2 = 0.9518	678.3	–
